Results from patent US9884063B2, “Amido-substituted azole compounds” (Bayer Pharma Aktiengesellschaft, priority 2014, dated 2018).
pIC50: −log10 of the molar value. Where a name gives a salt, the structure may show the parent alone.

Assays:
TNKS1 = target: T1, TNKS1 (Homo sapiens, UniProt O95271); test: Modified TNKS1 Assay 3 (BPS kit #80573, biotin-NAD+, 96 well); format: biochemical; details: human TNKS1, BPS kit #80573, 96 well
T1 sequence (O95271 1-1327): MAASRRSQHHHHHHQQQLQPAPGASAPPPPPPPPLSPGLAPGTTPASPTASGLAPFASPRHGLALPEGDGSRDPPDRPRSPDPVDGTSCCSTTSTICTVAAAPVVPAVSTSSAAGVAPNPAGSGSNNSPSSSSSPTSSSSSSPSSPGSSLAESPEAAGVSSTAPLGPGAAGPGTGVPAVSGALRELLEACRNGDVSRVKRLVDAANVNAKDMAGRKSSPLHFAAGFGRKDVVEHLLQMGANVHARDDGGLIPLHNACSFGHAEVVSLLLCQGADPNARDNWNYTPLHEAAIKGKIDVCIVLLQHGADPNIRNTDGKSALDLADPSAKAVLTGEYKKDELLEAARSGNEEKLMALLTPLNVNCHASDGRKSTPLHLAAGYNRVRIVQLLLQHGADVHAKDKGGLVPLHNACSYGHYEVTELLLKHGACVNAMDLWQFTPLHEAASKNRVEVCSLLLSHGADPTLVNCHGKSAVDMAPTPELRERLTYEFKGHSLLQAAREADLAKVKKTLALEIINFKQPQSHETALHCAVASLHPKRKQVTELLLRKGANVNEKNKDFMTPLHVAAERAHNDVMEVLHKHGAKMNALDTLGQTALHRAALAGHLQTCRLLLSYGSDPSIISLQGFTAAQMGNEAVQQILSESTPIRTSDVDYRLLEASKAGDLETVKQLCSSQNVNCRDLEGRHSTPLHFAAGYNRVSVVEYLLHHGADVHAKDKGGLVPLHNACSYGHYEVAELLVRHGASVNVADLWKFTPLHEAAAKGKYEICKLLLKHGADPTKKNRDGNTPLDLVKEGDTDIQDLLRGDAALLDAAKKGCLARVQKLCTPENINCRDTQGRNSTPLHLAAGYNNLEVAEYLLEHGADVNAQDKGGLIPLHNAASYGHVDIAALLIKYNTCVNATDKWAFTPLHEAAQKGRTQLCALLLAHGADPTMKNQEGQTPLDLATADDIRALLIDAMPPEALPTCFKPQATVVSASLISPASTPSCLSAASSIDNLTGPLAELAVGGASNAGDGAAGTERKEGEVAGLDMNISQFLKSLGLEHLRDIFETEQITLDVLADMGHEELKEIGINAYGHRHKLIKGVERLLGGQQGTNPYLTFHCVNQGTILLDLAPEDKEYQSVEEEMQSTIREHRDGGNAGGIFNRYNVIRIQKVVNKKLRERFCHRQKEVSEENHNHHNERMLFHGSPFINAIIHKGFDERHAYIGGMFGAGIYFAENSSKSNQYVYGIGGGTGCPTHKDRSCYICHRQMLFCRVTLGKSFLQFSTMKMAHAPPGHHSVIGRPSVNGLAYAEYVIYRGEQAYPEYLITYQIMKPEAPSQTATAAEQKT
How it was run: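 Chemiluminescent assay of TNKS1-catalysed ribosylation of a protein substrate with biotin-labelled NAD+, detected via streptavidin-HRP; run per kit protocol. Inhibition lowers the signal, and IC50 is the compound concentration halving the normalised readout.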

[1] = test system: HEK293 FOP control reporter cell line; test: HEK293 FOP Assay (FOP control vector luciferase reporter); format: cell-based; details: Homo sapiens
How it was run: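 Stable HEK293 line carrying the FOP vector (randomized, non-functional TCF sites; Geneticin-selected) was run in parallel with the TOP line. Cells were plated 24 h ahead at 10000/well and given recombinant human Wnt-3a at 2500–5 ng/ml. Compounds were tested at 50 μM–15 nM (3.16-fold steps) in CAFTY buffer, pH 7.4, with 2 mM Ca2+ and 0.01% BSA.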

[2] = test system: wildtype Wnt signaling cascade; test: HEK293 TOP Assay (Super TopFlash luciferase reporter, Wnt-3a stimulated); format: cell-based; details: Homo sapiens
How it was run: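 HEK293 cells stably carrying Super TopFlash (TOP) or FOP reporter, stimulated with recombinant human Wnt-3a (2500–5 ng/ml, two-fold steps). Both lines incubated in parallel with compound from 50 μM to 15 nM (3.16-fold) in CAFTY buffer pH 7.4 with 2 mM Ca2+ and 0.01% BSA; selectivity judged TOP vs FOP.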

[3] = HEK293 FOP control reporter cell line, 16 hours incubation, compound dilution series 50 μM to 15 nM
[4] = HEK293, 16 h, HEK293 TOP reporter cell line, Wnt-3a at EC50, 16 hours incubation, compound dilution series 50 μM to 15 nM

O=C(Nc1ccc(NC(=O)c2nc[nH]c2C(=O)NCCCN2CCCC2)cc1)c1ccc(F)cc1Cl [Example 274, N^4-{4-[(2-chloro-4-fluorobenzoyl)amino]phenyl}-N^5-[3-(pyrrolidin-1-yl)propyl]-1H-imidazole-4,5-dicarboxamide]
pIC50 (TNKS1): 8.00 | pIC50 [1, 3]: 4.35 | pIC50 [2, 4]: 6.54

O=C(Nc1ccc(NC(=O)c2nc[nH]c2C(=O)NCCN2CCC(F)(F)CC2)cc1)c1ccc(F)cc1Br [Example 215, N^4-{4-[(2-bromo-4-fluorobenzoyl)amino]phenyl}-N^5-[2-(4,4-difluoropiperidin-1-yl)ethyl]-1H-imidazole-4,5-dicarboxamide]
pIC50 (TNKS1): 6.68 | pIC50 [1, 3]: 4.53 | pIC50 [2, 4]: 6.40

O=C(Nc1ccc(NC(=O)c2nc[nH]c2C(=O)N[C@@H]2CCNC2)cc1)c1ccc(F)cc1Cl [Example 282, N^4-{4-[(2-chloro-4-fluorobenzoyl)amino]phenyl}-N^5-[(3R)-pyrrolidin-3-yl]-1H-imidazole-4,5-dicarboxamide hydrochloride salt]
pIC50 (TNKS1): 7.22 | pIC50 ([1]; HEK293, 16 h, HEK293 FOP control reporter cell line, 16 hours incubation, compound dilution series 50 μM to 15 nM): 4.30 | pIC50 ([2]; HEK293 TOP reporter cell line, Wnt-3a at EC50, 16 hours incubation, compound dilution series 50 μM to 15 nM): 6.01

COc1cc(NC(=O)c2[nH]cnc2C(=O)NCCN2CCCCC2)ccc1NC(=O)c1ccccc1Cl [Example 101, N^5-{4-[(2-chlorobenzoyl)amino]-3-methoxyphenyl}-N^4-[2-(piperidin-1-yl)ethyl]-1H-imidazole-4,5-dicarboxamide]
pIC50 (TNKS1): 7.40 | pIC50 [1, 3]: 4.54 | pIC50 [2, 4]: 6.66

CC1CCN(CCCNC(=O)c2nc[nH]c2C(=O)Nc2ccc(NC(=O)c3ccc(F)cc3Cl)cc2)CC1 [Example 400, N^5-{4-[(2-chloro-4-fluorobenzoyl)amino]phenyl}-N^4-[3-(4-methylpiperidin-1-yl)propyl]-1H-imidazole-4,5-dicarboxamide]
pIC50 (TNKS1): 7.70 | pIC50 [1, 3]: 4.89 | pIC50 [2, 4]: 6.44

CNC(=O)c1[nH]c(C)nc1C(=O)Nc1ccc(NC(=O)c2ccc(F)cc2Cl)cc1 [Example 65, N^4-{4-[(2-chloro-4-fluorobenzoyl)amino]phenyl}-N^5,2-dimethyl-1H-imidazole-4,5-dicarboxamide]
pIC50 (TNKS1): 6.80 | pIC50 [1, 3]: 5.02 | pIC50 [2, 4]: 6.10

O=C(Nc1ccc(NC(=O)c2[nH]cnc2C(=O)NCCN2CCCCC2)cc1)c1ccc(F)cc1 [Example 33, N^4-{4-[(4-fluorobenzoyl)amino]phenyl}-N^5-[2-(piperidin-1-yl)ethyl]-1H-imidazole-4,5-dicarboxamide]
pIC50 (TNKS1): < 6.30 | pIC50 ([1]; HEK293 FOP control reporter cells, 16 hours, luciferase, dilution series from 50 μM): ≤ 4.30 | pIC50 [2, 4]: 6.35 | pIC50 ([2]; HEK293, 16 h, HEK293 TOP reporter cells, Wnt3a at EC50, 16 hours, luciferase): 6.20

CC1CCCN(CCNC(=O)c2[nH]cnc2C(=O)Nc2ccc(NC(=O)c3ccccc3Cl)cc2)C1 (stereo not shown) [Example 210, N^4-{4-[(2-chlorobenzoyl)amino]phenyl}-N^5-[2-(3-methylpiperidin-1-yl)ethyl]-1H-imidazole-4,5-dicarboxamide]
pIC50 (TNKS1): 7.70 | pIC50 [1, 3]: 4.62 | pIC50 [2, 4]: 6.89

O=C(Nc1ccc(NC(=O)c2nc[nH]c2C(=O)NCCN2CCC(F)CC2)cc1)c1ccc(F)cc1Cl [Example 230, N^4-{4-[(2-chloro-4-fluorobenzoyl)amino]phenyl}-N^5-[2-(4-fluoropiperidin-1-yl)ethyl]-1H-imidazole-4,5-dicarboxamide]
pIC50 (TNKS1): 7.05 | pIC50 [1, 3]: 4.57 | pIC50 [2, 4]: 6.70

CC(CN1CCOCC1)NC(=O)c1[nH]cnc1C(=O)Nc1ccc(NC(=O)c2ccc(F)cc2Cl)cc1 (stereo not shown) [Example 268, N^4-{4-[(2-chloro-4-fluorobenzoyl)amino]phenyl}-N^5-[1-(morpholin-4-yl)propan-2-yl]-1H-imidazole-4,5-dicarboxamide]
pIC50 (TNKS1): 6.96 | pIC50 [1, 3]: 4.39 | pIC50 [2, 4]: 7.22

O=C(Nc1ccc(NC(=O)c2[nH]cnc2C(=O)NCCC2CC2)cc1)c1cc(F)c(F)cc1Cl [Example 49, N^5-{4-[(2-chloro-4,5-difluorobenzoyl)amino]phenyl}-N^4-(2-cyclopropylethyl)-1H-imidazole-4,5-dicarboxamide]
pIC50 (TNKS1): < 6.30 | pIC50 [1, 3]: 4.77 | pIC50 [2, 4]: 6.46

C[C@H]1CCCCN1CCNC(=O)c1[nH]cnc1C(=O)Nc1ccc(NC(=O)c2ccc(F)cc2Cl)cc1 [Example 266, N^4-{4-[(2-chloro-4-fluorobenzoyl)amino]phenyl}-N^5-{2-[(25)-2-methylpiperidin-1-yl]ethyl}-1H-imidazole-4,5-dicarboxamide formic acid salt]
pIC50 (TNKS1): 7.70 | pIC50 [1, 3]: 4.70 | pIC50 [2, 4]: 7.52

O=C(Nc1ccc(NC(=O)c2ocnc2C(=O)NCCN2CCCC(F)C2)cc1)c1ccc(F)cc1Cl (stereo not shown) [Example 220, N^5-{4-[(2-chloro-4-fluorobenzoyl)amino]phenyl}-N^4-[2-(3-fluoropiperidin-1-yl)ethyl]-1,3-oxazole-4,5-dicarboxamide]
pIC50 (TNKS1): 6.59 | pIC50 [1, 3]: 4.44 | pIC50 [2, 4]: 6.16

CN1CCN(CCCNC(=O)c2nc[nH]c2C(=O)Nc2ccc(NC(=O)c3ccc(F)cc3Cl)cc2)CC1 [Example 392, N^5-{4-[(2-chloro-4-fluorobenzoyl)amino]phenyl}-N^4-[3-(4-methylpiperazin-1-yl)propyl]-1H-imidazole-4,5-dicarboxamide]
pIC50 (TNKS1): 7.70 | pIC50 [1, 3]: 4.74 | pIC50 [2, 4]: 6.80

O=C(Nc1ccc(NC(=O)c2[nH]cnc2C(=O)NCCN2CCCCC2)cc1)c1cc(OC(F)(F)F)ccc1Br [Example 63, N^5-(4-{[2-bromo-5-(trifluoromethoxy)benzoyl]amino}phenyl)-N^4-[2-(piperidin-1-yl)ethyl]-1H-imidazole-4,5-dicarboxamide]
pIC50 (TNKS1): 7.15 | pIC50 [1, 3]: 4.96 | pIC50 [2, 4]: 6.96

O=C(Nc1ccc(NC(=O)c2nc[nH]c2C(=O)NCCN2CCC[C@@H](F)C2)cc1)c1ccc(F)cc1Cl [Example 277, N^4-{4-[(2-chloro-4-fluorobenzoyl)amino]phenyl}-N^5-{2-[(3R)-3-fluoropiperidin-1-yl]ethyl}-1H-imidazole-4,5-dicarboxamide]
pIC50 (TNKS1): 7.15 | pIC50 [1, 3]: 4.44 | pIC50 [2, 4]: 6.92

CC(C)[C@@H](C)NC(=O)c1[nH]cnc1C(=O)Nc1ccc(NC(=O)c2ccc(F)cc2Cl)cc1 [Example 134, N^4-{4-[(2-chloro-4-fluorobenzoyl)amino]phenyl}-N^5-[(2R)-3-methylbutan-2-yl]-1H-imidazole-4,5-dicarboxamide]
pIC50 (TNKS1): 6.44 | pIC50 [1, 3]: 5.20 | pIC50 [2, 4]: 6.19
